Measurements reported in US7989393B2, “Methods of controlling algae with thaxtomin and thaxtomin compositions” (priority 2007, dated 2011).

Columns and labels:
[1] = system: algae (mix); assay: Water and algae mix in a test tube; assay type: cell-based, green algae; settings: 10 mMol (2,840 ppm) in 2 ml water and algae mix
Method: Thaxtomin was added to water and algae in a test tube.
Metolachlor (2-chloro-N-(6-ethyl-o-tolyl)-N-[(1RS)-2-methoxy-1-methylethyl]acetamide) is a known pre-emergent herbicide commonly used to control annual grasses and some broadleaves such as Eastern black nightshade and pigweeds.

[2] = system: Batrachospermum spp.; assay: Bioactivity of purified thaxtomin verse CuSO4, algae growth bioassay; assay type: cell-based; set-up: key: ++ = visible death; + = growth inhibition; − = no visible growth inhibition; settings: 2 ppm, two weeks
Method: (§1) Purified thaxtomin was used for a bioassay test and its efficacy evaluated and compared with copper sulphate, an active ingredient for many copper based algaecides. The bioassay was run for two weeks and inhibition of algae growth was evaluated.

[3] = system: Oedogonium spp.; assay: as above; assay type: cell-based; set-up: key: ++ = visible death; + = growth inhibition; − = no visible growth inhibition; settings: 2 ppm, two weeks
Method: as §1

[4] = system: Oscillatoria spp.; assay: as above; assay type: cell-based; set-up: key: ++ = visible death; + = growth inhibition; − = no visible growth inhibition; settings: 2 ppm, two weeks
Method: as §1

[5] = system: Rhodymenia spp.; assay: as above; assay type: cell-based; set-up: key: ++ = visible death; + = growth inhibition; − = no visible growth inhibition; settings: 2 ppm, two weeks
Method: as §1

[6] = system: Spirogyra spp.; assay: as above; assay type: cell-based; set-up: key: ++ = visible death; + = growth inhibition; − = no visible growth inhibition; settings: 2 ppm, two weeks
Method: as §1

[7] = system: the tested algae; assay: Purified thaxtomin versus copper sulphate bioassay (text summary of Example 5); assay type: cell-based; settings: 2 ppm (commercial recommended rate); two weeks
Method: as §1

| Compound | Results: appearance of water and algae mix [1] | Bioactivity (inhibition of algae growth) [2] | Bioactivity (inhibition of algae growth) [3] | Bioactivity (inhibition of algae growth) [4] | Bioactivity (inhibition of algae growth) [5] | Bioactivity (inhibition of algae growth) [6] | efficacy against the tested organisms [7] |
| --- | --- | --- | --- | --- | --- | --- | --- |
| CCc1cccc(C)c1N(C(=O)CCl)C(C)COC (racemic) [Metolachlor, 2-chloro-N-(6-ethyl-o-tolyl)-N-[(1RS)-2-methoxy-1-methylethyl]acetamide] | did not show any algaestatic and/or algaecidal activity |  |  |  |  |  |  |
| O=S(=O)([O-])[O-].[Cu+2] [CuSO4, copper sulphate] |  | − | − | − | − | + | not very effective |
